# Literature values in patent US12576020B2, “Increasing the stability of agents for the treatment of keratinous material” (Henkel AG & Co. KGaA, priority 2019, dated 2026).
# Conditions: 25° C.
solubility in water (in words),Compound,solubility in water
–,"Nc1cc(S(=O)(=O)[O-])cc2cc(S(=O)(=O)[O-])c(N=Nc3ccccc3)c(O)c12.[Na+].[Na+] [Acid Red 33, disodium salt of 5-amino-4-hydroxy-3-(phenylazo)-naphthalene-2,7-disulphonate]",2.5 g/L
–,"O=S(=O)([O-])c1ccc(N=Nc2c(O)ccc3ccccc23)cc1.[Na+] [Acid Orange 7, sodium salt of 4-[(2-hydroxy-1-naphthyl)azo]benzene sulphonate]",more than 7 g/L
highly soluble,"O=C([O-])C1=NN(c2ccc(S(=O)(=O)[O-])cc2)C(=O)C1N=Nc1ccc(S(=O)(=O)[O-])cc1.[Na+].[Na+].[Na+] (stereo not shown) [Acid Yellow 23, tisodium salt of 4,5-dihydro-5-oxo-1-(4-sulfophenyl)-4-((4-sulfophenyl)azo)-1H-pyrazole-3-carboxylic acid]",–
–,"O=C([O-])c1c(Cl)c(Cl)c(Cl)c(Cl)c1-c1c2c(Br)cc(=O)c(Br)c-2oc2c(Br)c(O)cc(Br)c12.O=C([O-])c1c(Cl)c(Cl)c(Cl)c(Cl)c1-c1c2c(Br)cc(=O)c(Br)c-2oc2c(Br)c(O)cc(Br)c12.[Na+].[Na+] [Acid Red 92, disodium salt of 3,4,5,6-tetrachloro-2-(1,4,5,8-tetrabromo-6-hydroxy-3-oxoxanthen-9-yl)benzoic acid]",greater than 10 g/L
